Measured values published in patent publication US6699877B2 (Gruenenthal GmbH, priority 2000, dated 2004).

Test system: formalin-induced nociception
Assay: Formalin test, rat (second/late phase)
Assay type: in vivo
Details: i.p., 21.5 mg/kg, late phase
Method: Experiments to determine the antinociceptive activity of the compounds according to the invention of Formula I were carried out in the formalin test on male rats (Sprague-Dawley, 150-170 g).
In the formalin test, the first (early) phase (0-15 min after formalin injection) was distinguished from the second (late) phase (15-60 min after formalin injection) (D. Dubuisson, S. G. Dennis, Pain 4, 161-174 (1977)). The early phase, as a direct reaction to the formalin injection, represents a model for acute pain while the late phase is considered as a model for persistent (chronic) pain (T. J. Coderre, J. Katz, A. L. Vaccarino, R. Melzack, Pain, Vol. 52, p. 259,1993).
The compounds according to the invention were investigated in the second phase of the formalin test to obtain information about the effects of substances in chronic/inflammatory pain.
A nociceptive reaction was induced in freely moving experimental animals by a single subcutaneous formalin injection (50 μl, 5%) into the dorsal side of the back right paw, the nociceptive reaction being portrayed by the following behavioral parameters: lifting and holding the respective paw (Score 1), shaking and twitching (Score 2), licking and biting (Score 3). The different behavioral patterns triggered by the formalin injection were recorded continuously by observing the animals in the late phase of the formalin test and were weighted differently in an evaluation. Normal behavior in which the animal loads all four paws uniformly was recorded as score 0. The moment of administration prior to the formalin injection was selected according to the method of administration of the compounds according to the invention (intraperitoneal: 15 min, intravenous: 5 min). The described behavioral patterns (Score 1 to 3) in the animals are reduced and possibly even eliminated after injection of substances which have an antinociceptive effect in the formalin test. A comparisom was made with control animals which had received vehicles (solvents) prior to formalin administration. The nociceptive behavior was calculated as a so-called pain rate (PR). The various behavioral parameters received a different weighting (Factor 0, 1, 2, 3). Calculation took place at partial intervals of 3 min according to the following formula:
Substance and vehicle groups include n=10 animals in each case. The effect of the substance was determined as a percentage change versus control on the basis of the PR calculations. The ED50 calculations were made by regression analysis.

Compound: O=C(O)C1Nc2cc(Cl)cc(Cl)c2C2C=CCC12 (stereo not shown) [Example 2, 7,9-dichloro-3a,4,5,9b-tetrahydro-3H-cyclopenta[c]quinoline-4-carboxylic Acid]
- % inhibition of formalin-induced nociception: 64.5%
